Blank lines part the entries; values can stand above or below the compound they belong to.
Assays:
Format in all cases: physicochemical
[1] = Storage stability of crystals at different temperatures, airtight (HPLC purity, XRPD crystal form)
Method: 10 mg polymorph I of compound 1 obtained in Comparative Example 1 and polymorph A of sulfate salt obtained in Example 1 were placed in an airtight environment and stored at 2~8 °C, 25 °C and 60 °C for 1 week and 2 weeks, respectively, and then samples were taken to examine the chemical purity of the samples by HPLC and the crystal morphology of the samples by XRPD. Table 11 Evaluation of storage properties of crystals at different temperatures

[2] = Temperature and humidity stability, open storage (HPLC purity, XRPD crystal form)
Method: The sulfate polymorph A obtained in Example 1 was placed openly under conditions of 25°C/92.5% RH, 25°C/60% RH and 40°C/75% RH to test the temperature and humidity stability. After the samples were stored for 1 week and 4 weeks, respectively, the purity of the samples was tested by HPLC, and the crystalline morphology of the samples was detected by XRPD.
The XRPD results of sulfate polymorph A after 1 and 4 weeks of storage at 25°C/92.5% RH, 25°C/60% RH and 40°C/75% RH are shown in Figures 14 and 15. Table 12 Stability assessment of sulfate polymorph A at different temperatures and humidities

[3] = Moisture adsorption-desorption by DVS; settings: 25 °C
Method: The moisture adsorption-desorption properties of sulfate polymorph A obtained according to Example 1 were examined by DVS. 16 mg of sulfate polymorph A was placed in a metal container, which was placed in an Intrinsic DVS apparatus. A cyclic humidity gradient of 40-95-0-40% RH was set at 25 °C, and the samples were subjected to two successive adsorption-desorption cycles. At each stage, the following equilibrium criteria were used: mass change dm/dt < 0.002% over 5 min, with minimum and maximum equilibrium times of 60 min and 360 min, respectively, at each stage. Table 13 Dynamic water adsorption experiments for sulfate polymorph A

[4] = Solubility in buffers and water (HPLC of supernatant)
Method: Polymorph I of compound 1 obtained in Comparative Example 1, and sulfate polymorph A obtained in Example 1 were weighed in a sample vial, to which 1 mL of hydrochloric acid buffer solution at pH=1.2, acetate buffer solution at pH=4.5, phosphate buffer solution at pH=6.8, and water were added, respectively. The suspension was magnetically stirred at 25°C (1000 r/min).

[5] = 25°C/60%RH for four weeks, open
[6] = 25°C/92.5% RH for four weeks, open
[7] = 25°C/92.5% RH for one week, open
[8] = 40°C/75% RH for four weeks, open
[9] = acetate buffer solution pH 4.5, 25°C, 24 h
[10] = hydrochloric acid buffer solution pH 1.2, 25°C, 24 h
[11] = phosphate buffer solution pH 6.8, 25°C, 24 h

crystal structure (XRPD) after storage ([1]; 1 week and 2 weeks at 2~8 °C, 25 °C and 60 °C): did not undergo significant changes
Purity (%) ([1]; Initial): 97.5%
the amount of aromatic hydrocarbons (%) ([1]; Initial): 1.5%
Purity (%) ([1]; One week, 2~8 °C, airtight): 97.5%
the amount of aromatic hydrocarbons (%) ([1]; One week, 2~8 °C, airtight): 1.5%
Purity (%) ([1]; One week, 25 °C, airtight): 97.4%
the amount of aromatic hydrocarbons (%) ([1]; One week, 25 °C, airtight): 1.5%
Purity (%) ([1]; One week, 60 °C, airtight): 97.3%
the amount of aromatic hydrocarbons (%) ([1]; One week, 60 °C, airtight): 1.7%
Purity (%) ([1]; Two weeks, 2~8 °C, airtight): 97.5%
the amount of aromatic hydrocarbons (%) ([1]; Two weeks, 2~8 °C, airtight): 1.5%
Purity (%) ([1]; Two weeks, 25 °C, airtight): 97.5%
the amount of aromatic hydrocarbons (%) ([1]; Two weeks, 25 °C, airtight): 1.5%
Purity (%) ([1]; Two weeks, 60 °C, airtight): 97.1%
the amount of aromatic hydrocarbons (%) ([1]; Two weeks, 60 °C, airtight): 1.8%
Aromatic content (%) ([2]; 25°C/60% RH for one week, open): 1.0%
Purity (%) ([2]; 25°C/60% RH for one week, open): 98.1%
Aromatic content (%) [2, 5]: 1.0%
Purity (%) [2, 5]: 98.1%
Aromatic content (%) [2, 6]: 1.2%
Purity (%) [2, 6]: 97.8%
Aromatic content (%) [2, 7]: 1.0%
Purity (%) [2, 7]: 98.1%
Aromatic content (%) [2, 8]: 1.1%
Purity (%) [2, 8]: 97.9%
Aromatic content (%) ([2]; 40°C/75% RH for one week, open): 1.0%
Purity (%) ([2]; 40°C/75% RH for one week, open): 98.1%
Aromatic content (%) ([2]; Initial): 1.0%
Purity (%) ([2]; Initial): 98.1%
structural stability (purity and XRPD) on storage ([2]; different humidity and temperature conditions, 1 and 4 weeks): high structural stability
hygroscopicity ([3]; 0%RH-95%RH): slightly hygroscopic
moisture absorbed ([3]; range 0%RH-95%RH): 1.2%
1st Desorption Mass change (%) ([3]; Relative humidity 0 %): -0.574%
2nd Adsorption Mass change (%) ([3]; Relative humidity 0 %): -0.574%
1st Desorption Mass change (%) ([3]; Relative humidity 10 %): -0.344%
2nd Adsorption Mass change (%) ([3]; Relative humidity 10 %): -0.368%
1st Desorption Mass change (%) ([3]; Relative humidity 20 %): -0.210%
2nd Adsorption Mass change (%) ([3]; Relative humidity 20 %): -0.246%
1st Desorption Mass change (%) ([3]; Relative humidity 30 %): -0.084%
2nd Adsorption Mass change (%) ([3]; Relative humidity 30 %): -0.133%
1st Adsorption Mass change (%) ([3]; Relative humidity 40 %): 0.000%
1st Desorption Mass change (%) ([3]; Relative humidity 40 %): 0.081%
2nd Adsorption Mass change (%) ([3]; Relative humidity 40 %): -0.017%
1st Adsorption Mass change (%) ([3]; Relative humidity 50 %): 0.085%
1st Desorption Mass change (%) ([3]; Relative humidity 50 %): 0.178%
1st Adsorption Mass change (%) ([3]; Relative humidity 60 %): 0.174%
1st Desorption Mass change (%) ([3]; Relative humidity 60 %): 0.253%
1st Adsorption Mass change (%) ([3]; Relative humidity 70 %): 0.260%
1st Desorption Mass change (%) ([3]; Relative humidity 70 %): 0.327%
1st Adsorption Mass change (%) ([3]; Relative humidity 80 %): 0.357%
1st Desorption Mass change (%) ([3]; Relative humidity 80 %): 0.418%
1st Adsorption Mass change (%) ([3]; Relative humidity 90 %): 0.497%
1st Desorption Mass change (%) ([3]; Relative humidity 90 %): 0.589%
1st Adsorption Mass change (%) ([3]; Relative humidity 95 %): 0.604%
1st Desorption Mass change (%) ([3]; Relative humidity 95 %): 0.604%
solubility at 24 h ([4]; acetate buffer solution pH 4.5, 25°C): 58.6 µg/mL
pH of the solution after solvation saturation has been reached [4, 9]: 2.0
solubility at 24 h ([4]; hydrochloric acid buffer solution pH 1.2, 25°C): 22.5 µg/mL
pH of the solution after solvation saturation has been reached [4, 10]: 1.2
solubility at 24 h ([4]; phosphate buffer solution pH 6.8, 25°C): 21.6 µg/mL
pH of the solution after solvation saturation has been reached [4, 11]: 2.0
solubility at 24 h ([4]; water, 25°C): 64.7 µg/mL
pH of the solution after solvation saturation has been reached ([4]; water, 25°C, 24 h): 1.5
Compound: Cc1c2c(c(=O)n3c1C(=O)NC31CCCCC1)Nc1cc(NC(=O)C3CC3)ncc1C2 [Sulfate polymorph A]

crystal structure (XRPD) after storage ([1]; 2 weeks at high temperature (60 °C)): the crystal structure changed
crystal structure (XRPD) after storage ([1]; 2 weeks at low temperature (2-8 °C) or room temperature (25 °C)): did not change significantly
Purity (%) ([1]; Initial): 97.4%
the amount of aromatic hydrocarbons (%) ([1]; Initial): 1.6%
Purity (%) ([1]; One week, 2~8 °C, airtight): 97.6%
the amount of aromatic hydrocarbons (%) ([1]; One week, 2~8 °C, airtight): 1.4%
Purity (%) ([1]; One week, 25 °C, airtight): 97.6%
the amount of aromatic hydrocarbons (%) ([1]; One week, 25 °C, airtight): 1.4%
Purity (%) ([1]; One week, 60 °C, airtight): 96.6%
the amount of aromatic hydrocarbons (%) ([1]; One week, 60 °C, airtight): 2.4%
Purity (%) ([1]; Two weeks, 2~8 °C, airtight): 97.5%
the amount of aromatic hydrocarbons (%) ([1]; Two weeks, 2~8 °C, airtight): 1.5%
Purity (%) ([1]; Two weeks, 25 °C, airtight): 97.4%
the amount of aromatic hydrocarbons (%) ([1]; Two weeks, 25 °C, airtight): 1.6%
Purity (%) ([1]; Two weeks, 60 °C, airtight): 96.3%
the amount of aromatic hydrocarbons (%) ([1]; Two weeks, 60 °C, airtight): 2.7%
Solubility (μg/mL) [4, 9]: Not detected
pH of the solution after solvation saturation has been reached [4, 9]: 3.5
Solubility [4, 10]: 18.7 µg/mL
pH of the solution after solvation saturation has been reached [4, 10]: 1.0
Solubility (μg/mL) [4, 11]: Not detected
pH of the solution after solvation saturation has been reached [4, 11]: 6.4
Solubility (μg/mL) ([4]; water, 25°C, 24 h): Not detected
pH of the solution after solvation saturation has been reached ([4]; water, 25°C, 24 h): 6.4
Compound: N-(12'-methyl-1',5'-dioxo-1',5',6 ',11'-tetrahydro-2'H-spiro[cyclohexane-1,3'-imidazo[1,5':1,6]pyrido[3,4-b][ 1,6]naphthyridin]-8'-yl)cyclopropane carboxamide [polymorph I of Compound 1]

Source: patent EP4663639A1, “SALT AND CRYSTAL OF MNK INHIBITOR COMPOUND AND PREPARATION METHOD THEREFOR” (Novostar Pharmaceuticals, Ltd., priority 2023, dated 2024)
